≈ marks a conversion by molar mass, not a printed value. Like-named read-outs stand apart in the source and are kept apart here.
What was measured:
MCAO rats = experiment: Area and swelling degree of cerebral infarction in rat MCAO models; format: in vivo, Sprague-Dawley (SD) rat; conditions: n=8, glibenclamide 10 μg/kg ip at ischemia 4 h + 200 ng/h sc for 44 hours, after ischemia for 48 hours
Procedure: 7.2 Experiment Animals: Male Sprague-Dawley (SD) rat, clean grade, weighing at 200˜230 g. The temperature of animal feeding room was maintained at 20˜24° C., the humidity was maintained at 30˜70%; a cycle of lighting on 12 hours/lighting off 12 hours (06:00 AM on, 18:00 PM off) every day was employed. During the experiment, the animals were feed separately, and had free access to water and food.
The test drugs in group GB was formulated as follows: glibenclamide was dissolved in a little DMSO (dimethyl sulfoxide), the resulting solution was diluted to a DMSO concentration of 5 vol % with physiological saline, and the pH of the solution was adjusted to 8˜8.5 with NaOH. […]
Rats were rested for about 1 week before the experiment started. […] The blood flow in the brain was monitored with a laser Doppler (Model moorVMS-LDF2, Manufacturer moor) respectively pre-operation, post-operation and immediately after reperfusion, and the molding in which the ratio of the postoperative blood flow to the preoperative blood flow was less than 30% was regarded as a qualified molding. […]
After ischemia for 48 hours, the brain was taken and put into a brain slicer to slice coronal sections through the brain (2 mm each piece), stained at dark with 1% TTC for 15 min at 37° C., and analyzed for the area of infarction after taking a photograph. […]

[1] = Test on the solubility of glibenclamide in additive/cyclodextrin solutions; format: physicochemical; conditions: for solubility at 1 h: 25 °C, thermodynamic from solid; for Solubility: 25° C.
Procedure: An excess amount of glibenclamide powder was added into an aqueous solution comprising different proportion of additive (e.g., meglumine, sodium carbonate, sodium hydrogen carbonate or sodium hydroxide) and cyclodextrin (hydroxypropyl-β-cyclodextrin) to form a suspension. The suspension was placed in a constant shaking incubator, and shaken for 1 h at 25±1° C. The shaken suspension was filtered with a 0.45 μm hydrophilic filter membrane, with the primary filtrate being disposed and the subsequent filtrate being collected. The subsequent filtrate was diluted to appropriate times with a PBS buffer having a pH of 7.4, the absorbance of the diluted subsequent filtrate was determined at a wavelength of 225 nm, and the solubility of glibenclamide in the diluted subsequent filtrate was calculated according to the absorbance. Corresponding solubility curves were plotted with the solubility of glibenclamide as the vertical axis and the concentration of cyclodextrin and/or meglumine as the horizontal axis.

COc1ccc(Cl)cc1C(=O)NCCc1ccc(S(=O)(=O)NC(=O)NC2CCCCC2)cc1 [glibenclamide, 5-chloro-N-(4-[N-(cyclohexylcarbamoyl)aminosulfonyl]phenethyl)-2-methoxybenzamide]
Swelling degree (area of infarction side hemisphere / non-infarction side hemisphere) (MCAO rats): 1.31 ± 0.04
solubility at 1 h ([1]; aqueous buffer, meglumine 0.1% (w/v), cyclodextrin 0% (w/v), read-out: Solubility): 960 µg/mL (≈ 1.94 mM)
solubility at 1 h ([1]; aqueous buffer, meglumine 0.5% (w/v), cyclodextrin 0% (w/v), read-out: Solubility): 1760 µg/mL (≈ 3.56 mM)
solubility at 1 h ([1]; aqueous buffer, meglumine 1% (w/v), cyclodextrin 0% (w/v), read-out: Solubility): 4930 µg/mL (≈ 9.98 mM)
solubility at 1 h ([1]; aqueous buffer, meglumine 2.5% (w/v), cyclodextrin 0% (w/v), read-out: Solubility): 8030 µg/mL (≈ 16.3 mM)
solubility at 1 h ([1]; aqueous with cosolvent or surfactant or cyclodextrin, cyclodextrin only, from 0.5% (w/v) to 40% (w/v), read-out: water solubility of glibenclamide): 1.3 to 120 µg/mL (≈ 0.00263 to 0.243 mM)
solubility at 1 h ([1]; aqueous with cosolvent or surfactant or cyclodextrin, meglumine 0% (w/v), 2-hydroxypropyl-β-cyclodextrin 0.5% (w/v), read-out: Solubility): 1.3 µg/mL (≈ 0.00263 mM)
solubility at 1 h ([1]; aqueous with cosolvent or surfactant or cyclodextrin, meglumine 0% (w/v), 2-hydroxypropyl-β-cyclodextrin 1.25% (w/v), read-out: Solubility): 3.1 µg/mL (≈ 0.00628 mM)
solubility at 1 h ([1]; aqueous with cosolvent or surfactant or cyclodextrin, meglumine 0% (w/v), 2-hydroxypropyl-β-cyclodextrin 2.5% (w/v), read-out: Solubility): 5.8 µg/mL (≈ 0.0117 mM)
solubility at 1 h ([1]; aqueous with cosolvent or surfactant or cyclodextrin, meglumine 0% (w/v), 2-hydroxypropyl-β-cyclodextrin 5% (w/v), read-out: Solubility): 14 µg/mL (≈ 0.0283 mM)
solubility at 1 h ([1]; aqueous with cosolvent or surfactant or cyclodextrin, meglumine 0% (w/v), 2-hydroxypropyl-β-cyclodextrin 10% (w/v), read-out: Solubility): 32 µg/mL (≈ 0.0648 mM)
solubility at 1 h ([1]; aqueous with cosolvent or surfactant or cyclodextrin, meglumine 0.1% (w/v), 2-hydroxypropyl-β-cyclodextrin 0.5% (w/v), read-out: Solubility): 1250 µg/mL (≈ 2.53 mM)
solubility at 1 h ([1]; aqueous with cosolvent or surfactant or cyclodextrin, meglumine 0.1% (w/v), 2-hydroxypropyl-β-cyclodextrin 1.25% (w/v), read-out: Solubility): 1420 µg/mL (≈ 2.87 mM)
solubility at 1 h ([1]; aqueous with cosolvent or surfactant or cyclodextrin, meglumine 0.1% (w/v), 2-hydroxypropyl-β-cyclodextrin 2.5% (w/v), read-out: Solubility): 1660 µg/mL (≈ 3.36 mM)
solubility at 1 h ([1]; aqueous with cosolvent or surfactant or cyclodextrin, meglumine 0.1% (w/v), 2-hydroxypropyl-β-cyclodextrin 5% (w/v), read-out: Solubility): 2170 µg/mL (≈ 4.39 mM)
solubility at 1 h ([1]; aqueous with cosolvent or surfactant or cyclodextrin, meglumine 0.1% (w/v), 2-hydroxypropyl-β-cyclodextrin 10% (w/v), read-out: Solubility): 2170 µg/mL (≈ 4.39 mM)
solubility at 1 h ([1]; aqueous with cosolvent or surfactant or cyclodextrin, meglumine 0.1% (w/v), 2-hydroxypropyl-β-cyclodextrin 20% (w/v), read-out: Solubility): 2230 µg/mL (≈ 4.51 mM)
solubility at 1 h ([1]; aqueous with cosolvent or surfactant or cyclodextrin, meglumine 0.1% (w/v), 2-hydroxypropyl-β-cyclodextrin 30% (w/v), read-out: Solubility): 2210 µg/mL (≈ 4.47 mM)
solubility at 1 h ([1]; aqueous with cosolvent or surfactant or cyclodextrin, meglumine 0.1% (w/v), 2-hydroxypropyl-β-cyclodextrin 40% (w/v), read-out: Solubility): 2280 µg/mL (≈ 4.62 mM)
solubility at 1 h ([1]; aqueous with cosolvent or surfactant or cyclodextrin, meglumine 0.1% (w/v), cyclodextrin from 0.5% (w/v) to 5% (w/v), read-out: water solubility of glibenclamide): 1250 to 2170 µg/mL (≈ 2.53 to 4.39 mM)
solubility at 1 h ([1]; aqueous with cosolvent or surfactant or cyclodextrin, meglumine 0.1% (w/v), cyclodextrin from 5% (w/v) to 40% (w/v), read-out: solubility of glibenclamide): ~2170 µg/mL (≈ 4.39 mM)
solubility at 1 h ([1]; aqueous with cosolvent or surfactant or cyclodextrin, meglumine 5% (w/v), 2-hydroxypropyl-β-cyclodextrin 5% (w/v), read-out: Solubility): 25200 µg/mL (≈ 51.1 mM)
solubility at 1 h ([1]; aqueous with cosolvent or surfactant or cyclodextrin, meglumine 5% (w/v), 2-hydroxypropyl-β-cyclodextrin 10% (w/v), read-out: Solubility): 34400 µg/mL (≈ 69.7 mM)
solubility at 1 h ([1]; aqueous with cosolvent or surfactant or cyclodextrin, meglumine 5% (w/v), 2-hydroxypropyl-β-cyclodextrin 20% (w/v), read-out: Solubility): 42200 µg/mL (≈ 85.5 mM)
solubility at 1 h ([1]; aqueous with cosolvent or surfactant or cyclodextrin, meglumine 5% (w/v), 2-hydroxypropyl-β-cyclodextrin 30% (w/v), read-out: Solubility): 49400 µg/mL (≈ 99.9 mM)
solubility at 1 h ([1]; aqueous with cosolvent or surfactant or cyclodextrin, meglumine 5% (w/v), 2-hydroxypropyl-β-cyclodextrin 40% (w/v), read-out: Solubility): 51000 µg/mL (≈ 103 mM)
solubility at 1 h ([1]; aqueous with cosolvent or surfactant or cyclodextrin, meglumine 5% (w/v), cyclodextrin 0% (w/v), read-out: Solubility): 13000 µg/mL (≈ 26.4 mM)
solubility at 1 h ([1]; aqueous with cosolvent or surfactant or cyclodextrin, meglumine 5% (w/v), cyclodextrin from 5% (w/v) to 30% (w/v), read-out: water solubility of glibenclamide): 25200 to 49400 µg/mL (≈ 51.1 to 99.9 mM)
solubility at 1 h ([1]; aqueous with cosolvent or surfactant or cyclodextrin, meglumine 5% (w/v), cyclodextrin from 30% (w/v) to 40% (w/v), read-out: solubility of glibenclamide): ~49400 µg/mL (≈ 99.9 mM)
solubility at 1 h ([1]; aqueous with cosolvent or surfactant or cyclodextrin, meglumine 10% (w/v), cyclodextrin 0% (w/v), read-out: Solubility): 19000 µg/mL (≈ 38.6 mM)
solubility at 1 h ([1]; aqueous with cosolvent or surfactant or cyclodextrin, meglumine only, from 0.1% (w/v) to 10% (w/v), read-out: water solubility of glibenclamide): 960 to 19000 µg/mL (≈ 1.94 to 38.6 mM)
solubility at 1 h ([1]; aqueous with cosolvent or surfactant or cyclodextrin, sodium carbonate 0.1% (w/v), 2-hydroxypropyl-β-cyclodextrin 10% (w/v), read-out: Solubility): 6510 µg/mL (≈ 13.2 mM)
solubility at 1 h ([1]; aqueous with cosolvent or surfactant or cyclodextrin, sodium carbonate 0.1% (w/v), 2-hydroxypropyl-β-cyclodextrin 20% (w/v), read-out: Solubility): 10600 µg/mL (≈ 21.5 mM)
solubility at 1 h ([1]; aqueous with cosolvent or surfactant or cyclodextrin, sodium carbonate 0.1% (w/v), 2-hydroxypropyl-β-cyclodextrin 30% (w/v), read-out: Solubility): 10800 µg/mL (≈ 21.8 mM)
solubility at 1 h ([1]; aqueous with cosolvent or surfactant or cyclodextrin, sodium carbonate 0.1% (w/v), 2-hydroxypropyl-β-cyclodextrin 40% (w/v), read-out: Solubility): 10900 µg/mL (≈ 22.1 mM)
solubility at 1 h ([1]; aqueous with cosolvent or surfactant or cyclodextrin, sodium carbonate 0.1% (w/v), cyclodextrin from 5% (w/v) to 20% (w/v), read-out: water solubility of glibenclamide): 2350 to 10600 µg/mL (≈ 4.76 to 21.5 mM)
solubility at 1 h ([1]; aqueous with cosolvent or surfactant or cyclodextrin, sodium carbonate 0.1% (w/v), cyclodextrin from 20% (w/v) to 40% (w/v), read-out: solubility of glibenclamide): ~10600 µg/mL (≈ 21.5 mM)
solubility at 1 h ([1]; aqueous with cosolvent or surfactant or cyclodextrin, sodium hydrogen carbonate 4% (w/v), 2-hydroxypropyl-β-cyclodextrin 0.5% (w/v), read-out: Solubility): 320 µg/mL (≈ 0.648 mM)
solubility at 1 h ([1]; aqueous with cosolvent or surfactant or cyclodextrin, sodium hydrogen carbonate 4% (w/v), 2-hydroxypropyl-β-cyclodextrin 1.25% (w/v), read-out: Solubility): 590 µg/mL (≈ 1.19 mM)
solubility at 1 h ([1]; aqueous with cosolvent or surfactant or cyclodextrin, sodium hydrogen carbonate 4% (w/v), 2-hydroxypropyl-β-cyclodextrin 5% (w/v), read-out: Solubility): 1260 µg/mL (≈ 2.55 mM)
solubility at 1 h ([1]; aqueous with cosolvent or surfactant or cyclodextrin, sodium hydrogen carbonate 4% (w/v), 2-hydroxypropyl-β-cyclodextrin 10% (w/v), read-out: Solubility): 1690 µg/mL (≈ 3.42 mM)
solubility at 1 h ([1]; aqueous with cosolvent or surfactant or cyclodextrin, sodium hydrogen carbonate 4% (w/v), 2-hydroxypropyl-β-cyclodextrin 20% (w/v), read-out: Solubility): 1730 µg/mL (≈ 3.5 mM)
solubility at 1 h ([1]; aqueous with cosolvent or surfactant or cyclodextrin, sodium hydrogen carbonate 4% (w/v), 2-hydroxypropyl-β-cyclodextrin 30% (w/v), read-out: Solubility): 1780 µg/mL (≈ 3.6 mM)
solubility at 1 h ([1]; aqueous with cosolvent or surfactant or cyclodextrin, sodium hydrogen carbonate 4% (w/v), 2-hydroxypropyl-β-cyclodextrin 40% (w/v), read-out: Solubility): 1750 µg/mL (≈ 3.54 mM)
solubility at 1 h ([1]; aqueous with cosolvent or surfactant or cyclodextrin, sodium hydrogen carbonate 4% (w/v), cyclodextrin from 0.5% (w/v) to 10% (w/v), read-out: water solubility of glibenclamide): 320 to 1690 µg/mL (≈ 0.648 to 3.42 mM)
solubility at 1 h ([1]; aqueous with cosolvent or surfactant or cyclodextrin, sodium hydrogen carbonate 4% (w/v), cyclodextrin from 10% (w/v) to 40% (w/v), read-out: solubility of glibenclamide): ~1690 µg/mL (≈ 3.42 mM)
solubility at 1 h ([1]; aqueous with cosolvent or surfactant or cyclodextrin, sodium hydroxide 0.01% (w/v), 2-hydroxypropyl-β-cyclodextrin 1.25% (w/v), read-out: Solubility): 370 µg/mL (≈ 0.749 mM)
solubility at 1 h ([1]; aqueous with cosolvent or surfactant or cyclodextrin, sodium hydroxide 0.01% (w/v), 2-hydroxypropyl-β-cyclodextrin 2.5% (w/v), read-out: Solubility): 640 µg/mL (≈ 1.3 mM)
solubility at 1 h ([1]; aqueous with cosolvent or surfactant or cyclodextrin, sodium hydroxide 0.01% (w/v), 2-hydroxypropyl-β-cyclodextrin 5% (w/v), read-out: Solubility): 810 µg/mL (≈ 1.64 mM)
solubility at 1 h ([1]; aqueous with cosolvent or surfactant or cyclodextrin, sodium hydroxide 0.01% (w/v), 2-hydroxypropyl-β-cyclodextrin 10% (w/v), read-out: Solubility): 1260 µg/mL (≈ 2.55 mM)
solubility at 1 h ([1]; aqueous with cosolvent or surfactant or cyclodextrin, sodium hydroxide 0.01% (w/v), 2-hydroxypropyl-β-cyclodextrin 30% (w/v), read-out: Solubility): 1240 µg/mL (≈ 2.51 mM)
solubility at 1 h ([1]; aqueous with cosolvent or surfactant or cyclodextrin, sodium hydroxide 0.01% (w/v), 2-hydroxypropyl-β-cyclodextrin 40% (w/v), read-out: Solubility): 1350 µg/mL (≈ 2.73 mM)
solubility at 1 h ([1]; aqueous with cosolvent or surfactant or cyclodextrin, sodium hydroxide 0.01% (w/v), cyclodextrin from 0.5% (w/v) to 10% (w/v), read-out: water solubility of glibenclamide): 140 to 1260 µg/mL (≈ 0.283 to 2.55 mM)
solubility at 1 h ([1]; aqueous with cosolvent or surfactant or cyclodextrin, sodium hydroxide 0.01% (w/v), cyclodextrin from 10% (w/v) to 40% (w/v), read-out: solubility of glibenclamide): ~1260 µg/mL (≈ 2.55 mM)
Solubility ([1]; meglumine 0% (w/v), 2-hydroxypropyl-β-cyclodextrin 30% (w/v)): 86 µg/mL (≈ 0.174 mM)
Solubility ([1]; meglumine 0% (w/v), 2-hydroxypropyl-β-cyclodextrin 40% (w/v)): 120 µg/mL (≈ 0.243 mM)
Solubility ([1]; sodium hydrogen carbonate 4% (w/v), 2-hydroxypropyl-β-cyclodextrin 2.5% (w/v)): 840 µg/mL (≈ 1.7 mM)
Solubility ([1]; sodium hydroxide 0.01% (w/v), 2-hydroxypropyl-β-cyclodextrin 20% (w/v)): 1300 µg/mL (≈ 2.63 mM)

Source: patent US10966993B2, “Pharmaceutical composition comprising a sulfonylurea drug and preparation method thereof” (JIANGSU AOSAIKANG PHARMACEUTICAL CO., LTD., priority 2016, dated 2021)
